Earlier results as cited in EP4702989A1, “DRUG FOR TREATING LOCALLY ADVANCED UNRESECTABLE OR METASTATIC COLORECTAL CANCER AND USE THEREOF” (Shenzhen Chipscreen Biosciences Co., Ltd., priority 2023, dated 2024).
Where two headings read alike, the source gives them in different places.

How the values were obtained:
[1] = CORRECT; >=2 treatment lines; sample size 505; 2013 Lancet
[2] = CONCUR; >=3 treatment lines; sample size 136; 2015 Lancet
[3] = FRESCO-2; >=3 treatment lines; sample size 461; 2023 Lancet
[4] = FRESCO; >=3 treatment lines; sample size 278; 2018 JAMA

Row | Compound | Median PFS (months) [1] | ORR [1] | Median PFS (months) [2] | ORR [2] | Median PFS (months) [3] | ORR [3] | Median PFS (months) [4] | ORR [4]
1 | CNC(=O)c1cc(Oc2ccc(NC(=O)Nc3ccc(Cl)c(C(F)(F)F)c3)c(F)c2)ccn1 [Regorafenib] | 1.9 months | 1.0% | 3.2 months | 4.4% |  |  |  | 
2 | CNC(=O)c1c(C)oc2cc(Oc3ncnc4cc(OC)c(OC)cc34)ccc12 [Fruquintinib] |  |  |  |  | 3.7 months | 1.5% | 3.7 months | 4.7%
